Earlier results as cited in US20060105962A1, “TONIC TO MAINTAIN INTESTINAL FLORA” (priority 2004, published 2006).

Test system: rats
Settings: exposure over a thirteen week period, up to 100% safety

O=Cc1ccco1 [furfural compounds, furfural]
exposure to furfural compounds demonstrated as up to 100% safe: 53.0 mg/kg body weight
